Earlier results as cited in patent US20040028772A1, “Method for preparation of chewing gum with customer acceptable taste” (priority 2000, published 2004).
Structures can show the parent of a compound that is named as a salt.

SMILES | water-soluble / solubility in water | water solubility (in words)
Clc1ccc(COC(Cn2ccnc2)c2ccc(Cl)cc2Cl)c(Cl)c1 (stereo not shown) [Miconazol] | < 0.001 g/100 ml | 
C[C@]12CC[C@H]3[C@@H](CCC4=CC(=O)CC[C@@H]43)[C@@H]1CC[C@@H]2O [nandrolone] |  | heavily soluble
CC(=O)Nc1ccc(O)cc1 [paracetamol] | 1.4 g/100 ml | 
N=C(NCCCCCCNC(=N)NC(=N)Nc1ccc(Cl)cc1)NC(=N)Nc1ccc(Cl)cc1.O=C(O)[C@H](O)[C@@H](O)[C@H](O)[C@H](O)CO.O=C(O)[C@H](O)[C@@H](O)[C@H](O)[C@H](O)CO [Chlorhexidine digluconat] |  | mixable
[H]/N=C(\N/C(=N/[H])NCCCCCCNC(=N)NC(=N)Nc1ccc(Cl)cc1)Nc1ccc(Cl)cc1 [Chlorhexidine dihydrochloride] | 0.06 g/100 ml | 
CC1=C(/C=C/C(C)=C/C=C/C(C)=C/CO)C(C)(C)CCC1 [A-vitamin] |  | not water-soluble
CC(=O)O.CC(=O)O.NC(=N\CCCCCC/N=C(N)/N=C(\N)Nc1ccc(Cl)cc1)/N=C(\N)Nc1ccc(Cl)cc1 [Chlorhexidine diacetate] | 1.9 g/100 ml | 
